# Test results published in PubChem BioAssay AID248 (DTP/NCI, 2004).
# Toxic doses and inconclusive results are not listed.
# Tested on: L1210 leukemia ip in BDF1 mice, survival T/C
# Experiment: NCI In Vivo Anticancer Drug Screen. Data for tumor model L1210 Leukemia (intraperitoneal) in B6D2F1 (BDF1) mice
# Details: endpoint: mean survival time, higher = longer survival
# How it was run: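 Antitumor effect is assessed in tumor-bearing animals. Survival in the compound arm is compared with a vehicle-dosed control arm and expressed as their quotient.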
# [1] = dose: 100.0 mg/kg/injection, schedule: Q01DX001 (ip), vehicle: Klucel (hydroxypropylcellulose) (HPC)
# [2] = dose: 100.0 mg/kg/injection, schedule: Q01DX009 (ip), vehicle: Klucel (hydroxypropylcellulose) (HPC)
# [3] = dose: 100.0 mg/kg/injection, schedule: Q04DX003 (ip), vehicle: Klucel (hydroxypropylcellulose) (HPC)
# [4] = dose: 200.0 mg/kg/injection, schedule: Q01DX001 (ip), vehicle: Klucel (hydroxypropylcellulose) (HPC)
# [5] = dose: 200.0 mg/kg/injection, schedule: Q01DX009 (ip), vehicle: Klucel (hydroxypropylcellulose) (HPC)
# [6] = dose: 200.0 mg/kg/injection, schedule: Q04DX003 (ip), vehicle: Klucel (hydroxypropylcellulose) (HPC)
# [7] = dose: 400.0 mg/kg/injection, schedule: Q01DX001 (ip), vehicle: Klucel (hydroxypropylcellulose) (HPC)
# [8] = dose: 400.0 mg/kg/injection, schedule: Q01DX009 (ip), vehicle: Klucel (hydroxypropylcellulose) (HPC)
# [9] = dose: 400.0 mg/kg/injection, schedule: Q04DX003 (ip), vehicle: Klucel (hydroxypropylcellulose) (HPC)
# [10] = dose: 100.0 mg/kg/injection, schedule: Q01DX001 (ip), vehicle: carboxymethylcellulose (CMC)
# [11] = dose: 200.0 mg/kg/injection, schedule: Q01DX001 (ip), vehicle: carboxymethylcellulose (CMC)
# [12] = dose: 400.0 mg/kg/injection, schedule: Q01DX001 (ip), vehicle: carboxymethylcellulose (CMC)
# [13] = dose: 50.0 mg/kg/injection, schedule: Q01DX001 (ip), vehicle: saline
# [14] = dose: 100.0 mg/kg/injection, schedule: Q01DX001 (ip), vehicle: saline
# [15] = dose: 200.0 mg/kg/injection, schedule: Q01DX001 (ip), vehicle: saline
# [16] = dose: 100.0 mg/kg/injection, schedule: Q04DX003 (ip), vehicle: saline with Tween-80
# [17] = dose: 200.0 mg/kg/injection, schedule: Q04DX003 (ip), vehicle: saline with Tween-80
# [18] = dose: 400.0 mg/kg/injection, schedule: Q04DX003 (ip), vehicle: saline with Tween-80
# [19] = dose: 100.0 mg/kg/injection, schedule: Q01DX009 (ip), vehicle: saline with Tween-80
# [20] = dose: 200.0 mg/kg/injection, schedule: Q01DX009 (ip), vehicle: saline with Tween-80
# [21] = dose: 100.0 mg/kg/injection, schedule: Q04DX002 (ip), vehicle: Klucel (hydroxypropylcellulose) (HPC)
# [22] = dose: 200.0 mg/kg/injection, schedule: Q04DX002 (ip), vehicle: Klucel (hydroxypropylcellulose) (HPC)
# [23] = dose: 400.0 mg/kg/injection, schedule: Q04DX002 (ip), vehicle: Klucel (hydroxypropylcellulose) (HPC)
smiles,measurement,setting,value
c1ccc(Cc2cc(-c3ccccc3)n[nH]2)cc1,T/C,[1],100 % of control
same,T/C,[2],110 % of control
same,T/C,[3],100 % of control
same,T/C,[4],101 % of control
same,T/C,[5],96 % of control
same,T/C,[6],93 % of control
same,T/C,[7],103 % of control
same,T/C,[8],100 % of control
same,T/C,[9],98 % of control
COc1cccc(CCOC(C)=O)c1,T/C,"dose: 100.0 mg/kg/injection, schedule: Q04DX002 (ip), vehicle: saline with Tween-80",94 % of control
same,T/C,"dose: 200.0 mg/kg/injection, schedule: Q04DX002 (ip), vehicle: saline with Tween-80",108 % of control
same,T/C,"dose: 400.0 mg/kg/injection, schedule: Q04DX002 (ip), vehicle: saline with Tween-80",97 % of control
S=C(NP(=S)(NC(=S)N1CC1)NC(=S)N1CC1)N1CC1,T/C,[10],95 % of control
same,T/C,[11],91 % of control
same,T/C,[12],90 % of control
O=c1ccncn1Cc1ccccc1,T/C,[1],100 % of control
same,T/C,[4],97 % of control
same,T/C,[7],91 % of control
CC1(C)Cc2cccc(OC(N)=O)c2O1,T/C,"dose: 1.56 mg/kg/injection, schedule: Q04DX003 (ip), vehicle: Klucel (hydroxypropylcellulose) (HPC)",94 % of control
same,T/C,"dose: 3.13 mg/kg/injection, schedule: Q04DX003 (ip), vehicle: Klucel (hydroxypropylcellulose) (HPC)",103 % of control
same,T/C,"dose: 6.25 mg/kg/injection, schedule: Q04DX003 (ip), vehicle: Klucel (hydroxypropylcellulose) (HPC)",104 % of control
NC(=O)NC1CC(c2ccccc2)C(O)(c2ccccc2)C1 (centres undefined),T/C,[13],86 % of control
same,T/C,[14],92 % of control
same,T/C,[15],90 % of control
CC(NC(=O)c1ccc2ccccc2n1)C(=O)O (centres undefined),T/C,[10],92 % of control
same,T/C,[11],87 % of control
same,T/C,[12],89 % of control
CCCCCCC(C)O[Si](C)OCC (centres undefined),T/C,[16],95 % of control
same,T/C,[17],101 % of control
same,T/C,[18],96 % of control
CC(S(C)(=O)=O)(S(C)(=O)=O)S(C)(=O)=O,T/C,"dose: 75.0 mg/kg/injection, schedule: Q01DX001 (ip), vehicle: saline with Tween-80",96 % of control
same,T/C,"dose: 150.0 mg/kg/injection, schedule: Q01DX001 (ip), vehicle: saline with Tween-80",96 % of control
same,T/C,"dose: 300.0 mg/kg/injection, schedule: Q01DX001 (ip), vehicle: saline with Tween-80",107 % of control
CO[C@@H](C=O)O[C@@H](C=O)CO,T/C,"dose: 35.0 mg/kg/injection, schedule: Q01DX009 (ip), vehicle: water",115 % of control
same,T/C,"dose: 35.0 mg/kg/injection, schedule: Q01DX Z (ip), vehicle: water",115 % of control
same,T/C,"dose: 70.0 mg/kg/injection, schedule: Q01DX009 (ip), vehicle: water",123 % of control
same,T/C,"dose: 70.0 mg/kg/injection, schedule: Q01DX Z (ip), vehicle: water",122 % of control
same,T/C,"dose: 280.0 mg/kg/injection, schedule: Q01DX009 (ip), vehicle: water",153 % of control
same,T/C,"dose: 280.0 mg/kg/injection, schedule: Q01DX Z (ip), vehicle: water",160 % of control
CN(C)c1ccc(N=Nc2ccc(Cl)c(Cl)c2)cc1,T/C,"dose: 50.0 mg/kg/injection, schedule: Q01DX009 (ip), vehicle: saline with Tween-80",98 % of control
same,T/C,[19],95 % of control
same,T/C,[20],87 % of control
O/N=C(/CN1CCCCC1)c1ccccc1,T/C,[16],95 % of control
same,T/C,[17],98 % of control
same,T/C,[18],104 % of control
COC(=O)C1C2C(C)CC3(CC12C)OCCO3 (centres undefined),T/C,"dose: 100.0 mg/kg/injection, schedule: Q01DX009 (ip), vehicle: saline sonified",92 % of control
same,T/C,[3],102 % of control
same,T/C,"dose: 200.0 mg/kg/injection, schedule: Q01DX009 (ip), vehicle: saline sonified",97 % of control
same,T/C,[6],93 % of control
same,T/C,"dose: 400.0 mg/kg/injection, schedule: Q01DX009 (ip), vehicle: saline sonified",92 % of control
same,T/C,[9],86 % of control
O=C(O)C(Br)C(Br)C(=O)O.[Ag] (centres undefined),T/C,"dose: 9.38 mg/kg/injection, schedule: Q01DX001 (ip), vehicle: other",94 % of control
same,T/C,"dose: 18.75 mg/kg/injection, schedule: Q01DX001 (ip), vehicle: other",94 % of control
COc1ccc(C(=O)/C=C/c2ccc(O)cc2)cc1,T/C,"dose: 75.0 mg/kg/injection, schedule: Q04DX003 (ip), vehicle: saline",100 % of control
same,T/C,"dose: 150.0 mg/kg/injection, schedule: Q04DX003 (ip), vehicle: saline",96 % of control
same,T/C,"dose: 300.0 mg/kg/injection, schedule: Q04DX003 (ip), vehicle: saline",93 % of control
COc1ccc2c(c1)C(CC(=O)O)=CC2,T/C,[13],100 % of control
same,T/C,[14],96 % of control
same,T/C,[15],105 % of control
same,T/C,"dose: 400.0 mg/kg/injection, schedule: Q01DX001 (ip), vehicle: saline",107 % of control
c1ccc(-c2cc3c(nn2)[nH]c2ccccc23)cc1,T/C,[21],105 % of control
same,T/C,[22],97 % of control
same,T/C,[23],87 % of control
CCOC(=O)c1ncc(Cl)cc1NC(=O)CC(=O)Nc1cc(Cl)cnc1C(=O)OCC,T/C,"dose: 100.0 mg/kg/injection, schedule: Q04DX003 (ip), vehicle: saline",97 % of control
same,T/C,"dose: 200.0 mg/kg/injection, schedule: Q04DX003 (ip), vehicle: saline",91 % of control
same,T/C,"dose: 400.0 mg/kg/injection, schedule: Q04DX003 (ip), vehicle: saline",92 % of control
CC(=O)OC1CCC2(C)C(=CCC3C2CCC2(C)C3CC3C(c4ccccc4Cl)=NN(c4ccccc4)C32C#N)C1 (centres undefined),T/C,[21],95 % of control
same,T/C,[22],95 % of control
same,T/C,[23],95 % of control
COC(=O)c1ccc(C(=O)O)nc1,T/C,[2],104 % of control
same,T/C,[5],94 % of control
same,T/C,[8],102 % of control
CCCNC(=O)Nc1ccc(C)c(Cl)c1,T/C,[19],100 % of control
same,T/C,[16],108 % of control
same,T/C,[20],96 % of control
same,T/C,[17],101 % of control
same,T/C,"dose: 400.0 mg/kg/injection, schedule: Q01DX009 (ip), vehicle: saline with Tween-80",100 % of control
same,T/C,[18],95 % of control
COC(=O)C(Br)(Br)C(=O)OC,T/C,"dose: 12.5 mg/kg/injection, schedule: Q04DX002 (ip), vehicle: saline with Tween-80",97 % of control
same,T/C,"dose: 25.0 mg/kg/injection, schedule: Q04DX002 (ip), vehicle: saline with Tween-80",105 % of control
same,T/C,"dose: 50.0 mg/kg/injection, schedule: Q04DX002 (ip), vehicle: saline with Tween-80",101 % of control
CC(S)CN1CC1 (centres undefined),T/C,[3],107 % of control
same,T/C,[6],105 % of control
C/C(=N\NC(N)=S)c1cccs1,T/C,"dose: 12.5 mg/kg/injection, schedule: Q04DX003 (ip), vehicle: saline with Tween-80",93 % of control
same,T/C,"dose: 25.0 mg/kg/injection, schedule: Q04DX003 (ip), vehicle: saline with Tween-80",103 % of control
same,T/C,"dose: 50.0 mg/kg/injection, schedule: Q04DX003 (ip), vehicle: saline with Tween-80",101 % of control
O=C(NCc1ccco1)Nc1ccccc1Cl,T/C,"dose: 155.0 mg/kg/injection, schedule: Q01DX Z (ip), vehicle: methylcellulose (MC)",100 % of control
same,T/C,"dose: 233.0 mg/kg/injection, schedule: Q01DX Z (ip), vehicle: methylcellulose (MC)",100 % of control
same,T/C,"dose: 350.0 mg/kg/injection, schedule: Q01DX Z (ip), vehicle: methylcellulose (MC)",94 % of control
